{"source": "paper PMC7551886", "about": "“Antitumour Effects of Astaxanthin and Adonixanthin on Glioblastoma” (Marine Drugs, 2020)", "key": {"p27": {"tested_on": "p27", "experiment": "Immunoblotting, p27 expression in GL261", "assay_type": "cell-based, mouse", "conditions": "GL261, 10 µM, 48 h", "method": "(§1) GL261 cell was seeded at 2.5 × 10^4 cells per well in 24-well plates with culture medium supplemented with 10% FBS. After 24 h of incubation, the medium was changed to DMEM containing 10% FBS and 0.1%DMSO PBS, 300 μM temozolomide, 10 μM astaxanthin, or 10 μM adonixanthin was added for 6 and 48 h. Cells were lysed in a special buffer (RIPA buffer R0278; Sigma-Aldrich, St. Louis, MO, USA) with a protease inhibitor cocktail (Sigma-Aldrich), phosphatase inhibitor cocktails 2 and 3 (Sigma-Aldrich), and sample buffer (Wako, Osaka, Japan). The protein concentration was determined by comparison with a known concentration of bovine serum albumin using the BCA Protein Assay Kit (Thermo Fisher Scientific). The amount of total protein was 2 μg. Equal amounts of protein in sample buffer containing 10% 2-mercaptoethanol were subjected to sodium dodecyl sulphate polyacrylamide gel electrophoresis (SDS-PAGE) in 5-20% gradient gels (SuperSep Ace; Wako), and the separated proteins were transferred to polyvinylidene difluoride membrane (Immobilon-P; Merck Millipore Corporation, Bedford, MA, USA). After blocking for 30 min with Blocking One-P (Nacalai Tesque), we incubated the membranes with primary antibodies overnight at 4 °C. […] The band intensity was […] an Immuno Star LD (Wako). Band intensity was measured using an LAS-4000 UV mini Luminescent Image Analyzer (Fujifilm, Tokyo Japan) and Multi Gauge Version 3.0 (Fujifilm). The phosphorylation of ERK1/2, Akt, and p38 MAPK was measured by normalizing against total ERK1/2, total Akt, and total p38 MAPK. […]"}, "Fibronectin mRNA": {"tested_on": "Fibronectin mRNA", "experiment": "qRT-PCR of Fibronectin mRNA in GL261", "assay_type": "cell-based, mouse", "conditions": "GL261, 10 µM, 48 h", "method": "To evaluate the effect of astaxanthin and adonixanthin on the expression of Fibronectin mRNA expression, we performed quantitative real-time reverse transcription polymerase chain reaction (qRT-PCR) analysis. GL261 cell was seeded at 2.5 × 10^4 cells well in 24-well plates with culture medium supplemented with 10% FBS. After 24 h of incubation, the medium was changed to DMEM containing 10% FBS and 0.1% DMSO PBS, 300 μM temozolomide, 10 µM astaxanthin, or 10 µM adonixanthin was added for 48 h. After 48 h of treatment, RNA was isolated from GL261 cells using Nucleo Spin RNA II (Takara, Shiga, Japan). RNA concentrations were determined using NanoVue Plus (GE Healthcare Japan, Tokyo, Japan). Single-strand cDNAs were synthesized from the isolated RNAs via reverse transcription with a PrimeScript RT Reagent Kit (Perfect Real Time; Takara). Quantitative real-time RT-PCR was performed using TB Green Premix Ex Taq II (Tli RNaseH Plus; Takara) and a TP800 Thermal Cycler Dice Real Time System (Takara). All procedures were carried out in accordance with the manufacturer’s instructions. […] The results are expressed as relative gene expression levels normalized to that of β-actin."}, "U251MG cells": {"tested_on": "U251MG cells", "experiment": "Cell viability (CCK-8 assay) in U251MG", "assay_type": "cell-based, human", "conditions": "treated for 96 h", "method": "U251MG, GL261, or U87MG cells were seeded onto 96-well plates at a density of 2 × 10^3 cells/well with DMEM supplemented with 10% FBS and then incubated for 24 h, after which the culture medium was changed to DMEM containing 10% FBS. Then, astaxanthin, adonixanthin or temozolomide (Tokyo Chemical Industry Co., Ltd., Tokyo, Japan) were added to the culture. Cell proliferation was determined using the CCK-8 assay according to the manufacturer’s instructions (Dojindo, Kumamoto, Japan). After each incubation, 10 μL of CCK-8 solution were added to each well. Plates were incubated for 3 h for 37 °C, and the absorbance was read at 450 nm with a reference wavelength of 630 nm using a Varioscan Flash 2.4 microplate reader (Thermo Fisher Scientific, Waltham, MA, USA)."}, "NADPH oxidase 4 (Nox4)": {"tested_on": "NADPH oxidase 4 (Nox4)", "experiment": "Immunoblotting, Nox4 expression in GL261", "assay_type": "cell-based, mouse", "conditions": "GL261, 10 µM, 6 h", "method": "as §1, with “μg.” for “μg. Equal amounts of protein in sample buffer containing 10% 2-mercaptoethanol were subjected to sodium dodecyl sulphate polyacrylamide gel electrophoresis (SDS-PAGE) in 5-20% gradient gels (SuperSep Ace; Wako), and the separated proteins were transferred to polyvinylidene difluoride membrane (Immobilon-P; Merck Millipore Corporation, Bedford, MA, USA). After blocking for 30 min with Blocking One-P (Nacalai Tesque), we incubated the membranes with primary antibodies overnight at 4 °C.”"}, "ERK1/2": {"tested_on": "ERK1/2", "experiment": "Immunoblotting, phosphorylation of ERK1/2 in GL261", "assay_type": "cell-based, mouse", "conditions": "GL261, 10 µM, 6 h post-treatment", "method": "as §1, with “μg.” for “μg. Equal amounts of protein in sample buffer containing 10% 2-mercaptoethanol were subjected to sodium dodecyl sulphate polyacrylamide gel electrophoresis (SDS-PAGE) in 5-20% gradient gels (SuperSep Ace; Wako), and the separated proteins were transferred to polyvinylidene difluoride membrane (Immobilon-P; Merck Millipore Corporation, Bedford, MA, USA). After blocking for 30 min with Blocking One-P (Nacalai Tesque), we incubated the membranes with primary antibodies overnight at 4 °C.”"}, "Akt": {"tested_on": "Akt", "experiment": "Immunoblotting, phosphorylation of Akt in GL261", "assay_type": "cell-based, mouse", "conditions": "GL261, 10 µM, 6 h post-treatment", "method": "as §1, with “μg.” for “μg. Equal amounts of protein in sample buffer containing 10% 2-mercaptoethanol were subjected to sodium dodecyl sulphate polyacrylamide gel electrophoresis (SDS-PAGE) in 5-20% gradient gels (SuperSep Ace; Wako), and the separated proteins were transferred to polyvinylidene difluoride membrane (Immobilon-P; Merck Millipore Corporation, Bedford, MA, USA). After blocking for 30 min with Blocking One-P (Nacalai Tesque), we incubated the membranes with primary antibodies overnight at 4 °C.”"}, "cyclin D1": {"tested_on": "cyclin D1", "experiment": "Immunoblotting, cyclin D1 expression in GL261", "assay_type": "cell-based, mouse", "conditions": "GL261, 10 µM, 48 h", "method": "as §1, with “μg.” for “μg. Equal amounts of protein in sample buffer containing 10% 2-mercaptoethanol were subjected to sodium dodecyl sulphate polyacrylamide gel electrophoresis (SDS-PAGE) in 5-20% gradient gels (SuperSep Ace; Wako), and the separated proteins were transferred to polyvinylidene difluoride membrane (Immobilon-P; Merck Millipore Corporation, Bedford, MA, USA). After blocking for 30 min with Blocking One-P (Nacalai Tesque), we incubated the membranes with primary antibodies overnight at 4 °C.”"}}}
{"smiles": "CC1=C(/C=C/C(C)=C/C=C/C(C)=C/C=C/C=C(C)/C=C/C=C(C)/C=C/C2=C(C)C(=O)[C@@H](O)CC2(C)C)C(C)(C)C[C@H](O)C1", "note": "[Adonixanthin, adonixanthin]", "values": [{"measurement": "expression of p27", "setting": "p27", "value": "increased"}, {"measurement": "mRNA level of fibronectin", "setting": "Fibronectin mRNA", "value": "decreased"}, {"measurement": "concentration above which cell viability was suppressed", "setting": "U251MG cells", "value": "> 0.1", "unit": "µM"}, {"measurement": "expression of Nox4", "setting": "NADPH oxidase 4 (Nox4)", "value": "significantly decreased"}, {"measurement": "phosphorylation of ERK1/2", "setting": "ERK1/2", "value": "decreased"}, {"measurement": "phosphorylation of Akt", "setting": "Akt", "value": "decreased"}, {"measurement": "expression of cyclin D1", "setting": "cyclin D1", "value": "decreased"}]}
{"smiles": "CC1=C(/C=C/C(C)=C/C=C/C(C)=C/C=C/C=C(C)/C=C/C=C(C)/C=C/C2=C(C)C(=O)[C@@H](O)CC2(C)C)C(C)(C)C[C@H](O)C1=O", "note": "[Astaxanthin, astaxanthin]", "values": [{"measurement": "expression of p27", "setting": "p27", "value": "increased"}, {"measurement": "mRNA level of fibronectin", "setting": "Fibronectin mRNA", "value": "decreased"}, {"measurement": "concentration above which cell viability was suppressed", "setting": "U251MG cells", "value": "more than 1 µM"}, {"measurement": "expression of Nox4", "setting": "NADPH oxidase 4 (Nox4)", "value": "no change"}, {"measurement": "phosphorylation of ERK1/2", "setting": "ERK1/2", "value": "decreased"}, {"measurement": "phosphorylation of Akt", "setting": "Akt", "value": "decreased"}, {"measurement": "expression of cyclin D1", "setting": "cyclin D1", "value": "decreased"}]}
